Test results published in ChEMBL document CHEMBL1921767, “Facile synthesis of new 4-aza-podophyllotoxin analogs via microwave-assisted multi-component reactions and evaluation of their cytotoxic activity” (Bioorg Med Chem Lett, 2011).
≈ marks a conversion by molar mass, not a printed value.

Assays:
Format in all cases: functional, cell-based
[1] = Cytotoxicity against human SW1116 cells after 24 hrs by MTT assay; conditions: SW 1116, 24 h
M14 = assay: Cytotoxicity against human M14 cells after 24 hrs by MTT assay; conditions: M14, 24 h
MCF7 = assay: Cytotoxicity against human MCF7 cells after 24 hrs by MTT assay; conditions: MCF7, 24 h

SMILES	IC50 [1]	IC50 (M14)	IC50 (MCF7)
Cc1nc2c3c(ccc2s1)NC1=C(C(=O)OC1)C3c1ccccc1 (racemic)	156 µg/mL (≈ 466 µM)	> 1000 µg/mL	> 1000 µg/mL
Cc1nc2c3c(ccc2s1)NC1=C(C(=O)OC1)C3c1cccc([N+](=O)[O-])c1 (racemic)	26 µg/mL (≈ 68.5 µM)	77.9 µg/mL (≈ 205 µM)	151 µg/mL (≈ 399 µM)
Cc1nc2c3c(ccc2s1)NC1=C(C(=O)OC1)C3c1ccc(Cl)cc1Cl (racemic)	–	> 1000 µg/mL	539 µg/mL (≈ 1340 µM)
Cc1ccc(C2C3=C(COC3=O)Nc3ccc4sc(C)nc4c32)cc1 (racemic)	122 µg/mL (≈ 350 µM)	225 µg/mL (≈ 645 µM)	25.7 µg/mL (≈ 73.7 µM)
COc1ccc(C2C3=C(COC3=O)Nc3ccc4sc(C)nc4c32)cc1 (racemic)	> 1000 µg/mL	508 µg/mL (≈ 1390 µM)	–
COc1cc(C2C3=C(COC3=O)Nc3ccc4sc(C)nc4c32)cc(OC)c1OC (racemic)	383 µg/mL (≈ 903 µM)	> 1000 µg/mL	686 µg/mL (≈ 1620 µM)
Cc1nc2c3c(ccc2s1)NC1=C(C(=O)OC1)C3c1ccc(Br)cc1 (racemic)	257 µg/mL (≈ 623 µM)	167 µg/mL (≈ 405 µM)	748 µg/mL (≈ 1810 µM)
Cc1nc2c3c(ccc2s1)NC1=C(C(=O)OC1)C3c1ccc(O)c([N+](=O)[O-])c1 (racemic)	69.4 µg/mL (≈ 176 µM)	33.9 µg/mL (≈ 85.7 µM)	56 µg/mL (≈ 142 µM)
Cc1nc2c3c(ccc2s1)NC1=C(C(=O)OC1)C3c1ccc([N+](=O)[O-])cc1 (racemic)	> 1000 µg/mL	> 1000 µg/mL	> 1000 µg/mL
